Data: article PMC6767236, “Selective Cannabinoid 2 Receptor Agonists as Potential Therapeutic Drugs for the Treatment of Endotoxin-Induced Uveitis” (Molecules, 2019)
Entries after “also recorded” stand apart in the source; their conditions may differ. Like-named read-outs stand apart in the source and are kept apart here.

Experiments:
human CB1R [1] = molecular target: T1, human CB1R (Homo sapiens, UniProt P21554)
T1 construct: host or cells: CHO

[2] = Octanol/water distribution coefficient (logD)
CYP2D6 = CYP2D6 (Homo sapiens, UniProt P10635); test: Cytochrome P450 inhibition assay, CYP2D6; assay type: in vitro ADME
CYP2D6, sequence (P10635 whole entry): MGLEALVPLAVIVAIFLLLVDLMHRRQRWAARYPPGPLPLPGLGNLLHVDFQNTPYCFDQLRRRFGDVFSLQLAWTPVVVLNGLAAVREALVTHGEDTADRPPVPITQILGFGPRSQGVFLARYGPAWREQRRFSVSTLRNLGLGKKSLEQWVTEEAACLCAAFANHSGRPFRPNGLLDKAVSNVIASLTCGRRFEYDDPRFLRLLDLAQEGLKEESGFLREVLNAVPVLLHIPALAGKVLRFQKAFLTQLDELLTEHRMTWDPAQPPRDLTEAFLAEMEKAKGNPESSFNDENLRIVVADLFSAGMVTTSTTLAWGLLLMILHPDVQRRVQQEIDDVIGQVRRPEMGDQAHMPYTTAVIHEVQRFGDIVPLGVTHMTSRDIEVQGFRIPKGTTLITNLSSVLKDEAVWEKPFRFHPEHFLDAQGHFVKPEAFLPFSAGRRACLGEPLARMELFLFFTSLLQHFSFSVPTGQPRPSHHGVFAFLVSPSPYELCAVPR

human CB1R [3] = molecular target: T1, human CB1R; remark: listed apart in the source
human CB2R = molecular target: T2, human CB2R (Homo sapiens, UniProt P34972); test: Radioligand binding assay, human CB2R ([3H]-CP55940)
T2 construct: bgal (beta-galactosidase fragment of the PathHunter system, named only in the cell line's name); host or cells: CHO-K1 (CHOK1hCB2_bgal)
T2 sequence (P34972 whole entry, the tested form may be a part): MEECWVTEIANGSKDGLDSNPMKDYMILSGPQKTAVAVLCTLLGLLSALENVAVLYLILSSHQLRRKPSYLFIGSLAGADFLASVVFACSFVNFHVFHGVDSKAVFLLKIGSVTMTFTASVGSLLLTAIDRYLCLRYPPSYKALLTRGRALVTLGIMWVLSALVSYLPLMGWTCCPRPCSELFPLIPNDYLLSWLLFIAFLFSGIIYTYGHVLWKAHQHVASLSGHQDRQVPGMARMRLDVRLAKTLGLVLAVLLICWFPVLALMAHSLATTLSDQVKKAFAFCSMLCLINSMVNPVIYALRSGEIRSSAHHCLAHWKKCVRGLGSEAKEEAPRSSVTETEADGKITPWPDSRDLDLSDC
Method: Membrane fractions were prepared from cultured CHOK1hCB1_bgal, CHOK1hCB2_bgal, and CHOK1mCB2_bgal cells (DiscoveRx, Fremont, CA, USA) as previously described. Protein concentration was determined using the Pierce bicinchoninic acid (BCA) protein assay (Rochford, IL, USA) as per the manufacturer’s instructions.
Radio ligand-binding assays were carried out as described by Souethoudt et al. (2018). Briefly, membranes from cells expressing human CB2R or CB1R or mouse CB2R and the radioligand, [^3H]-CP55940 (Perkin Elmer, Basel, Switzerland) was used. […] Membrane aliquots containing 5 µg (CHOK1hCB1_bgal) or 1 µg (CHOK1hCB2_bgal) of membrane protein in 100 µL assay buffer (50 mMTris-HCl, 5 mM MgCl2, 0.1% bovine serum albumin (BSA), pH 7.4) were incubated at 30 °C for 1 h, in presence of 3.5 nM of [^3H]-CP55940 (CHOK1hCB1_bgal) or 1.5 nM [^3H]-CP55940 (CHOK1hCB2_bgal). The incubation was terminated by rapid filtration performed on glass microfibre (GF/C) filters (Whatman International, Maidstone, UK), presoaked for 30 min with 0.25% polyethyleneimine (PEI), and using a Brandel harvester (Brandel, Gaithersburg, MD, USA). Filter-bound radioactivity was determined by scintillation spectrometry using a Tri-Carb 2900 TR liquid scintillation counter (Perkin Elmer, Boston, MA, USA). […] In all receptor binding experiments, nonspecific binding was determined in the presence of 1 µM “cold” agonist.

[4] = system: leukocyte-endothelial interactions in the iridial microcirculation; test: Endotoxin-induced uveitis (EIU), intravital microscopy of iridial microcirculation, WT mice; assay type: in vivo, BALB/c mice; conditions: for adherent leukocytes in the iridial microcirculation: WT mice; for Rolling leukocytes per min: LPS + topical 1.5% w/v, mean ± SD, n = 6
Method: EIU was induced in BALB/c mice using an intravitreal injection of LPS (2 μL; 125 ng/μL; E. coli 0111:B4 L084M4118V; Sigma-Aldrich, Oakville, ON, Canada) in saline,. Animals were anesthetized with isoflurane (4% induction, 2% maintenance), and were injected intravitreally through the pars plana with sterile saline (control) or LPS solution using a 30G needle and Hamilton syringe (Hamilton Company, Reno, NV, USA) with the assistance of a WILD M37 dissecting microscope (Leitz Canada, Kitchener, ON, Canada). The puncture wound was glued shut with 3M Vetbond Tissue Adhesive (3M Animal Products, St. Paul, MN, USA), and animals were allowed to recover.
IVM was conducted as previously described in Toguri et al. (2014). The iridial microcirculation was imaged 6 h after induction of EIU. Animals were anesthetized with pentobarbital (i.p., 54 mg/kg). Fifteen minutes before initiating IVM, 0.05% Rhodamine 6G (1.5 mL/kg; Sigma-Aldrich) was injected intravenously (i.v.) to visualize leukocytes within the vasculature, while 5% fluorescein isothiocyanate (FITC) conjugated albumin (i.v., 1 mL/kg; Sigma-Aldrich) was used to visualize blood flow. The iridial microcirculation was observed using an Olympus OV100 Small Animal Imaging System (Olympus, Tokyo, Japan), which contains an MT-20 light source, fluorescence excitation from a xenon lamp (150 W) and an excitation filter for rhodamine-6G (excitation 515–560 nm, emission 590 nm). Images were captured in real-time by a black and white DP70 CCD C-mount camera and digitally recorded using HCImage software (Hamamatsu, Herrsching, Germany).
During IVM animals were placed on a heating pad in a stereotactic frame, and Tear-Gel® (Novartis Pharmaceuticals Canada Inc., Dorval, QC, Canada) was applied to their cornea. The iris was divided into four equal quadrants by drawing two superficial lines on the cornea, lengthwise and widthwise. IVM was carried out in each of these quadrants. Two to four videos of each quadrant were recorded for 30 s each. Videos were analyzed off-line without knowledge of the treatment groups. […] Using ImageJ software (National Institute of Health, Bethesda, MD, USA) the number of adherent leukocytes within each vessel segment was calculated by measuring the diameter and length of vessel segment studied, assuming a cylindrical geometry of blood vessels. Adherent leukocytes were expressed as number of cells per mm^2 of endothelial surface. Rolling leukocytes were classified as cells that moved along the endothelium and crossed a predetermined cross-sectional line of the venule. The number of rolling leukocytes was counted for 30 s and used to calculate the number of rolling leukocytes per min. IVM was conducted 6 h after induction of EIU.
RO6871304, RO6871085, or RO6851228 were applied topically on the left eye (1.5% w/v; 5 μL/animal)) directly after injection of LPS in the same eye. Control animals received vehicle (Tocrisolve) (5 μL/animal) only. HU910 was dissolved for i.v. administration in mixed micelles.

[5] = set-up: method as in earlier work; conditions: * previously published; cited from earlier work
mouse CB2R = mouse CB2R (Mus musculus, UniProt P47936); set-up: bgal (beta-galactosidase fragment of the PathHunter system, named only in the cell line's name); host or cells: CHO-K1 (CHOK1mCB2_bgal); conditions: * previously published; read-out: mouse CB2R: cAMP EC50; cited from earlier work
mouse CB2R, sequence (P47936 whole entry, the tested form may be a part): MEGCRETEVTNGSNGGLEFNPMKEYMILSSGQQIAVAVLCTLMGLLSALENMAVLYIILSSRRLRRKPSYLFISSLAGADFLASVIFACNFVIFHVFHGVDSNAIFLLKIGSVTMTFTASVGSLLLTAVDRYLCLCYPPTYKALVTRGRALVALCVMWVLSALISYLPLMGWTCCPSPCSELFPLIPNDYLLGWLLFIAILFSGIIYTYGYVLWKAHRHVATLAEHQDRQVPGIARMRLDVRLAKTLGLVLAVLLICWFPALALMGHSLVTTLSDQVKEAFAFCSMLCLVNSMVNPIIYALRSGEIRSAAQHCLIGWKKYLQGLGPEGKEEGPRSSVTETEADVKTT

[6] = topical 1.5% w/v (5 µL/animal), 6 h after intravitreal LPS, vs LPS + vehicle
[7] = * previously published; read-out: hCB1R: beta arrestin EC50; cited from earlier work
[8] = * previously published; read-out: hCB1R: cAMP EC50; cited from earlier work

T1 sequence (P21554 whole entry): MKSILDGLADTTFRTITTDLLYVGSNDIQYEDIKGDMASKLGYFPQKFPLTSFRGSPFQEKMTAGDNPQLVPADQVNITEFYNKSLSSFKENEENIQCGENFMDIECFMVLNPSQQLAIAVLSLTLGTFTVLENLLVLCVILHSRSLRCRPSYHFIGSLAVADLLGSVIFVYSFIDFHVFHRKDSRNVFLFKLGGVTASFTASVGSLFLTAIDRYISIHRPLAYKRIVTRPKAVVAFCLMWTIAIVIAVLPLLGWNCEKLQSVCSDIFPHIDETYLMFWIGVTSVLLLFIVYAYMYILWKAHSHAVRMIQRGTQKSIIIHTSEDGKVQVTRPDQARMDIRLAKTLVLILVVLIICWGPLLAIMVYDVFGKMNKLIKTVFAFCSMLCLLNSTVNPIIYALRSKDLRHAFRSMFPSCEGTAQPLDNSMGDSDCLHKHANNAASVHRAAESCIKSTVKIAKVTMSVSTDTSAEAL

Structure (SMILES)	EC50 (human CB1R [1]; read-out: hCB1R: beta arrestin EC50; * previously published; cited from earlier work)	logD ([2]; octanol/water, pH 7.4)	IC50 (CYP2D6)	EC50 (human CB1R [3]; read-out: hCB1R: cAMP EC50; * previously published; cited from earlier work)	hCB1R Ki/hCB2R Ki (human CB2R)	adherent leukocytes in the iridial microcirculation ([4]; 3.0 mg/kg i.v. in mixed micelles, 6 h after LPS, vs LPS + vehicle (p < 0.01))	adherent leukocytes in the iridial microcirculation [4, 6]	EC50 (human CB1R [1]; [7])	Plasma Protein Binding: FREE Fraction mouse [5]	LogD (at pH 7.4) [2]	IC50 (CYP2D6; read-out: IC50 CYP2D6)	EC50 (human CB1R [3]; [8])	Rolling leukocytes per min ([4]; 6 h after intravitreal LPS)	EC50 (mouse CB2R)	hCB1R: cAMP efficacy (human CB1R [3]; second number of the cell; relative to 1 µM CP55940; * previously published; cited from earlier work)	Ki (human CB2R; [3H]-CP55940 displacement, read-out: hCB2R: Ki)
CCCCCCC(C)(C)c1cc(OC)c([C@H]2C=C(CO)[C@H]3C[C@@H]2C3(C)C)c(OC)c1 [HU308, {(1S,4S,5S)-4-[2,6-Dimethoxy-4-(2-methyloctan-2-yl)phenyl]-6,6-dimethylbicyclo[3.1.1]hept-2-en-2-yl}methanol, reference compound]	> 10 µM	4.29	> 50 µM	> 10 µM	–	–	–	–	–	–	–	–	–	–	–	–
CCCCCCC(C)(C)c1cc(OC)c(C2=C[C@H]3CC[C@]2(CO)C3(C)C)c(OC)c1 [HU910, {(1S,4R)-2-[2,6-dimethoxy-4-(2-methyloctan-2-yl)phenyl]-7,7-dimethylbicyclo[2.2.1]hept-2-en-1-yl}methanol, reference compound]	–	–	–	–	89	significantly reduced leukocyte adhesion	significantly attenuated	> 30 µM	4.1%	out of range	> 50 µM	> 10 µM	–	–	–	–
CNC(=O)[C@@H](NC(=O)c1cc(OCC2(C)COC2)c(C2CC2)cn1)C(C)(C)C [RO6851228, 5-Cyclopropyl-N-[(2S)-3,3-dimethyl-1-(methylamino)-1-oxobutan-2-yl]-4-[(3-methyloxetan-3-yl)methoxy]pyridine-2-carboxamide]	–	–	–	–	–	–	increased leukocyte-adhesion; also recorded: increases leukocyte adhesion	–	–	–	> 50 µM	–	0.45 ± 0.47 per min	0.004 µM	–	–
Cc1nc([C@](C)(CC2CC2)NC(=O)c2cc(OCC(F)(F)F)c(C3CC3)cn2)no1 [RO6871085, 5-Cyclopropyl-N-[(2S)-1-cyclopropyl-2-(5-methyl-1,2,4-oxadiazol-3-yl)propan-2-yl]-4-(2,2,2-trifluoroethoxy)pyridine-2-carboxamide]	–	–	–	–	–	–	significantly attenuated	> 30 µM	0.9%	–	34 µM	1.45 µM	–	0.003 µM	38%	–
CC(C)(C)c1nc(N2CC[C@H](O)C2)c2nnn(Cc3nnnn3C3CC3)c2n1 [RO6871304, (3S)-1-{5-tert-butyl-3-[(1-cyclopropyl-1H-tetrazol-5-yl)methyl]-3H-[1,2, 3]triazolo[4,5-d]pyrimidin-7-yl}pyrrolidin-3-ol]	–	–	–	–	–	–	significantly attenuated; also recorded: most efficacious	–	–	–	> 50 µM	> 10 µM	0.05 ± 0.07 per min	–	–	0.017 µM
